Measured values from patent US20230321059A1, “MEPYRAMINE FOR USE IN THE TOPICAL TREATMENT OF NEUROPATHIC PAIN” (Assistance Publique - Hopitaux de Paris, priority 2020, published 2023).
Where two headings read alike, the source gives them in different places.

Molecular target: T1, human Nav1.7 (Homo sapiens, UniProt Q15858)
T1 construct: expressed in transfected cells; host or cells: HEK 293T
Assay: Patch clamp recording of heterologously expressed human Nav1.7 currents in HEK 293T cells
Format: cell-based
Details: for IC50: 50-ms depolarizing pulse to 0 mV, HEK 293T cells, mean±SEM (n=4-10), read-out: IC50 for human Nav1.7 inhibition
Procedure: FIG. 1. A) Families of human Nav1.7 current traces in the presence of increasing concentrations of mepyramine (0-100 μM). The current was elicited by a 50-ms depolarizing pulse to 0 mV from a holding potential of −100 mV (top) or −60 mV (bottom). Voltage steps were applied every 15 s. B) Cumulative dose-response curves for human Nav1.7 inhibition by mepyramine derived from experiments as in A. The IC50 values were 4±0.1 μM at Vh of −60 mV (empty circles) or 15.3±0.1 μM at Vh of −100 mV (filled circles). Each data point is the mean±SEM (n=4-10). C) Representative I-V curve family of hNav1.7 currents recorded using a protocol (inset) where cells were depolarized to a variety of potentials from a holding potential of −100 mV. D) Normalized human Nav1.7 activation curves obtained from experiments as in C. Curves were fit by using a first-order Boltzmann relations (n=16).
Human embryonic kidney (HEK) 293T cells were cultured as described in Hao et al. (Neuron, 2013, 77:899-914) and were recorded 48 hours after co-transfection with human Nav1.7 (hNav1.7) and green fluorescent protein clones. Patch clamp recordings were performed using borosilicate electrodes (Harvard Apparatus) having a resistance of […] when filled with the intracellular solution. Recordings were made at room temperature (20-24° C.) using an Axopatch 200B amplifier (Axon Instruments), filtered at 1 kHz, and digitally sampled at 5-20 kHz. Data acquisition was performed with pClamp 10.2, and data were analyzed using Prism 4 software.
For voltage clamp protocols, currents were leak-subtracted by using a P/6 protocol. Voltage errors were minimized using 75-80% series resistance compensation. Intracellular pipette solution consisted of (mM): 130 CsCl, 10 Hepes, 8 NaCl, 0.4 NaGTP, 4 MgATP, 1 MgCl2, 1 CaCl2 and 10 EGTA (adjusted to pH7.3 with CsOH, ˜300 mOsm/l). […] Stock solution of Mepyramine […] was dissolved in distilled water. Cells were perfused with bath solution at flow rate of 5 mL/min.
The dose-response curve for mepyramine was fitted with the Hill equation: I/Imax=[M]^nH/(IC50^nH+[M]^nH), where IC50 is the half-maximal inhibitory concentration and nH the Hill coefficient. The activation curve (G-V) was fitted using Boltzmann function: G/Gmax=1/(1+exp^[(V1/2−V)/k]) where G/Gmax is the normalized conductance, V1/2 is the voltage of half-maximum conductance activation, and k is the steepness factor. Data were presented as mean±SEM.

[1] = HEK cells, in the absence of histamine and in the absence of H1 receptors

T1 sequence (Q15858 whole entry): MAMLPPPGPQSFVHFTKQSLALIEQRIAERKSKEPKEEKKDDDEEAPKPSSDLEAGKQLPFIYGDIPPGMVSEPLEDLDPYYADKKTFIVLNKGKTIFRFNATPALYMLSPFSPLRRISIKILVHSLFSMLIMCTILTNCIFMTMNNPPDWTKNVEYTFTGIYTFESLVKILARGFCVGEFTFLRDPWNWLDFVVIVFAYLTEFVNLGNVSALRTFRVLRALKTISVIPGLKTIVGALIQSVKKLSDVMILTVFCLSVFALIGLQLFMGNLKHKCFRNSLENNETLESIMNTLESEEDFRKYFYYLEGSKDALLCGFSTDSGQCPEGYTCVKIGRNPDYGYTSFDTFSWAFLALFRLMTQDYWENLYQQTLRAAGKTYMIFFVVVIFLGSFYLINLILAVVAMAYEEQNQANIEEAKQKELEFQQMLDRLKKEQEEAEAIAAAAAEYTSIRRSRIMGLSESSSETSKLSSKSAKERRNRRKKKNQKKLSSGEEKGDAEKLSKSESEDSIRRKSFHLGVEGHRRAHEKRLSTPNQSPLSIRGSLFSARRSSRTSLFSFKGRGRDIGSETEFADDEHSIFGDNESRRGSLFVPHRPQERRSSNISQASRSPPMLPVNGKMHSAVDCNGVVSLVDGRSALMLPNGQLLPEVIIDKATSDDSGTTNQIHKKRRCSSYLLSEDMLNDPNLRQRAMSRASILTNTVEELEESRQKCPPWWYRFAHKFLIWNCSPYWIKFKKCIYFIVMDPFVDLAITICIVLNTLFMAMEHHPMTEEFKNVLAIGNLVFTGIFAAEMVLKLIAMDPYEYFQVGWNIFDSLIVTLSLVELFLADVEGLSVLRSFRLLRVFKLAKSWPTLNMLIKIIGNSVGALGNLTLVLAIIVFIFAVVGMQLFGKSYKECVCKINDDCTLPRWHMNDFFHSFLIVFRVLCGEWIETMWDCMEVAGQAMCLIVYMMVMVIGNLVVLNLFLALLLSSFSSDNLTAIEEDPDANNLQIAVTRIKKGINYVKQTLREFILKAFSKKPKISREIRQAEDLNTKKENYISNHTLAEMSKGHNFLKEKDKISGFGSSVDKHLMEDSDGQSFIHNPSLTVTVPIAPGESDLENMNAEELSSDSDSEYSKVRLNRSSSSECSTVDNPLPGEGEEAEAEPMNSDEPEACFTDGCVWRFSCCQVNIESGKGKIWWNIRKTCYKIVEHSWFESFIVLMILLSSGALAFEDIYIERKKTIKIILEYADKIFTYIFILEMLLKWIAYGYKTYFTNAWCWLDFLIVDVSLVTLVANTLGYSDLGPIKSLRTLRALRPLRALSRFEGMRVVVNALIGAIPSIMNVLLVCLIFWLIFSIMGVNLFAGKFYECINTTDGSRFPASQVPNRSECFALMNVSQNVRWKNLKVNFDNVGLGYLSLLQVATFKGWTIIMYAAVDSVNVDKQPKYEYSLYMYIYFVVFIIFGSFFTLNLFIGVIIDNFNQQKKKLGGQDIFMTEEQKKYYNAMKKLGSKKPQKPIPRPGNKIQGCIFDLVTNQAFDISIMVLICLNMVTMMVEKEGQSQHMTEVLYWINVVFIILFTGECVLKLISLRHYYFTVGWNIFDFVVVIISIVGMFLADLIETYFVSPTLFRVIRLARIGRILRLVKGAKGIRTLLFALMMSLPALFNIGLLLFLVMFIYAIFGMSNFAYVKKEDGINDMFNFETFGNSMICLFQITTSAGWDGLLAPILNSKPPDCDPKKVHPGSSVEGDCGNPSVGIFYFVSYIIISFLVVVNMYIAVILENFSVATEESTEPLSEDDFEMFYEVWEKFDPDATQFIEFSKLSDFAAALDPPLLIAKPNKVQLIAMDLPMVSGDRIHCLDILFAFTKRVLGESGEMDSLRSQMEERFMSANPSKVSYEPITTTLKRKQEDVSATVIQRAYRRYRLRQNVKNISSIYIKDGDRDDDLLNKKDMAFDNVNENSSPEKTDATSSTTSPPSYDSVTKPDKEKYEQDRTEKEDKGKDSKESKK

Dependence of the effect on H1 receptors [1]: independent of the H1 receptors
Inhibition of heterologously expressed human Nav1.7 channels [1]: inhibits
IC50 (Vh of −60 mV): 4 ± 0.1 µM
IC50 (Vh of −100 mV): 15.3 ± 0.1 µM
Compound: COc1ccc(CN(CCN(C)C)c2ccccn2)cc1 [mepyramine, N,N-dimethyl-N′-(4-methoxybenzyl)-N′-(2-pyridyl) ethylenediamine]
